Data taken from PubChem BioAssay (NCI).
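Briefly, cells in 96-well plates were exposed to five compound concentrations for 48 h, and endpoints were estimated by linear interpolation. Here, GI50 denotes the concentration required for 50% inhibition of growth. TGI: total growth inhibition.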

Tests used:
Assay in all cases: NCI anticancer screen, dose series, 48 h
CCRF-CEM leukemia = system: CCRF-CEM leukemia
UACC-62 melanoma = system: UACC-62 melanoma
SK-MEL-2 melanoma = system: SK-MEL-2 melanoma
NCI-H23 lung = system: NCI-H23 lung
OVCAR-5 ovarian = system: OVCAR-5 ovarian
MDA-MB-231 breast = system: MDA-MB-231 breast
ACHN renal = system: ACHN renal
BT-549 breast = system: BT-549 breast
COLO 205 colon = system: COLO 205 colon
MDA-MB-435 = system: MDA-MB-435

SMILES | GI50 (CCRF-CEM leukemia) [µM] | TGI (CCRF-CEM leukemia) [µM] | GI50 (UACC-62 melanoma) [µM] | TGI (UACC-62 melanoma) [µM] | GI50 (SK-MEL-2 melanoma) [µM] | TGI (SK-MEL-2 melanoma) [µM] | GI50 (NCI-H23 lung) [µM] | TGI (NCI-H23 lung) [µM] | GI50 (OVCAR-5 ovarian) [µM] | TGI (OVCAR-5 ovarian) [µM] | GI50 (MDA-MB-231 breast) [µM] | TGI (MDA-MB-231 breast) [µM] | GI50 (ACHN renal) [µM] | TGI (ACHN renal) [µM] | GI50 (BT-549 breast) [µM] | TGI (BT-549 breast) [µM] | GI50 (COLO 205 colon) [µM] | TGI (COLO 205 colon) [µM] | GI50 (MDA-MB-435) [µM] | TGI (MDA-MB-435) [µM]
CC(=O)O.CC(=O)O.CC(=O)O.CC(=O)O.[Rh].[Rh] | 5.1 | 20.3 | 24.3 | 56.5 | 30.7 | 81.4 | 32.1 | > 100 | 20.5 | 52.4 | 48.6 | > 100 | 24.9 | > 100 | 29.5 | 90.3 | 7.3 | 30.1 | 21.7 | 55.4
NS(=O)(=O)c1cccc(-c2ccc3c(NC(=O)C4CC4)n[nH]c3c2)c1 | 8.51 | > 25 | 15.7 | > 25 | 8.78 | 24.9 | > 25 | > 25 | > 25 | > 25 | 25 | > 25 | > 25 | > 25 | > 21 | > 25 | > 14.5 | > 22.9 | 5.31 | 15.3
Cc1cccc2c(Nc3ccc(NS(C)(=O)=O)cc3)c3ccc([N+](=O)[O-])cc3nc12 | 0.326 | 4.52 | 0.773 | 3.01 | 2.55 | 5.49 | 1.25 | 4.31 | 3.95 | 21.1 | 2.05 | 5.42 | 0.661 | 4.13 | 1.75 | 7.47 | 1.03 | 3.79 | 1.85 | 7.27
O=C1CSC(c2ccccc2O)N1c1nnc(Cn2ccnc2)o1 (stereo not given) | 4.37 | 52.9 | 11.5 | 26 | 15.2 | 36.4 | 14.9 | 65 | 22.1 | 50.7 | 6.25 | 71.4 | 4.96 | > 100 | 6.26 | 29.2 | 12.9 | 45.7 | 2.35 | 8.55
COc1cccc(CC(C)=C(c2ccc(OCCCN(C)C)cc2)c2ccc(OCCCN(C)C)cc2)c1 | 0.463 | 1.13 | 0.457 | 0.835 | 0.601 | 1.65 | 2.87 | 6.31 | 0.707 | 2.06 | 0.457 | 0.869 | 0.501 | 0.991 | 3.09 | 6.42 | 0.432 | 0.868 | 0.444 | 0.819
O=C1CCC(N2C(=O)c3cccc(NCCCC4CCN(CCNC(=O)c5cc6c(o5)C(=O)c5ccccc5C6=O)CC4)c3C2=O)C(=O)N1 (stereo not given) | 2.27 | > 71.6 | 0.304 | 0.98 | 1.27 | 3.6 | 0.159 | 0.399 | 0.653 | 2 | 0.67 | 6.83 | 1.29 | 2.56 | 0.636 | 2.15 | 0.266 | 0.808 | 0.182 | 0.335
